From patent US20230210857A1, “RESPIRATORY STIMULANT PARENTERAL FORMULATIONS” (Enalare Therapeutics Inc., priority 2021, published 2023)

Tests used:
Format in all cases: physicochemical
[1] = pKa and theoretical free base solubility
[2] = Stability as a function of pH 2-6 (1 mg/mL, 0.25 mg/mL at pH 6, in ~10 mM citric acid/glycine buffers)
Excerpt: Thus, the inventors believe that the solubility of the drug becomes inadequate for the intended product concentration above about pH 3.6. However, the drug product will be diluted prior to infusion and then intravenously infused slowly, and such a low pH is unlikely to present a safety or patient comfort issue, but stability of the drug in solution could be an issue at such a low pH. The purpose of this experiment was to assess the stability of the drug as a function of pH.
A key consideration in such an experiment is the concentration of drug and buffer used. Use of a buffer is essential since the data is meaningless if the pH shifts dramatically during the experiment. However, it is desirable to keep the buffer at minimal strength to minimize the impact of buffer catalysis. Buffer strength can be minimized by keeping the drug concentration low. Keeping the drug concentration low also minimizes confounding the data with solubility limits (i.e. the drug precipitating out of solution).
Methodology: Buffer solutions containing ˜10 mM each of citric acid and glycine in the pH range 2-6 were prepared by titrating 250 mL of a single stock containing both buffer agents with 1N NaOH/1N HCl and removing 50 mL aliquots at predetermined pH values. Solutions at 1 mg/mL were prepared in buffers of pH 2-5 by dissolving ˜25 mg of Compounds having the active agent (N-(4,6-Bis-n-propylamino-[1,3,5]triazin-2-yl)-O,N-dimethyl-hydroxylamine) H2SO4 in ˜23 mL of a given buffer, adjusting the pH to the target and making up the volume to 25.0 mL in a volumetric flask. The solution at pH 6 was prepared similarly but at a lower drug concentration of 0.25 mg/mL using 6.68 mg of Compounds having the active agent (N-(4,6-Bis-n-propylamino-[1,3,5]triazin-2-yl)-O,N-dimethyl-hydroxylamine) H2SO4.
Each of the buffered solutions were filtered through a 0.2 μm polyether sulfone syringe filter into a volumetric flask, which had been previously rinsed with 70% ethanol and dried in a laminar flow hood. Following filtration, each buffered solution was split into 10 aliquots (9 aliquots of 2.5 mL each and 1 aliquot of 2 mL) in 5 mL serum vials previously rinsed with 70% ethanol and dried in a laminar flow hood. Filtration and preparation of aliquots were performed in a laminar flow hood. The 2 mL aliquot of each buffered solution was submitted for T0 analysis (HPLC assay and related substances). Of the nine 2.5 mL aliquots, three aliquots were stored at each 40° C. and 60° C., two aliquots were stored at 25° C. and one aliquot was stored at −70° C. Samples stored at 40° C. and at 60° C. were evaluated for physical appearance, pH, assay and related substances after 1 week, 2 weeks and 4 weeks of storage. Samples at 25° C. and −70° C. served as controls to be analyzed if necessary.
The pH values for all the samples remained relatively constant for up to 4 weeks at both storage temperatures.

[3] = Stability as a function of pH, narrow range pH 2-3.6 (1 mg/mL in ~10 mM citric acid/glycine buffers)
Protocol: Accordingly, the stability of the compound was evaluated in the pH range 2-3.6.
Methodology: Buffer solutions containing ˜10 mM each of citric acid and glycine in the pH range 2-3.6 were prepared by titrating 250 mL of a single stock containing both buffer agents with 1N NaOH/1N HCl and removing 50 mL aliquots at predetermined pH values. Solutions at 1 mg/mL were prepared in the buffers by dissolving ˜25 mg of compound in ˜23 mL of a given buffer, adjusting the pH to the target and making up the volume to 25.0 mL in a volumetric flask.
Each of the buffered solutions was filtered through a 0.2 μm polyether sulfone syringe filter into a volumetric flask previously rinsed with 70% ethanol and dried in a laminar flow hood. Following filtration, each buffered solution was split into 9 aliquots in 5 mL serum vials previously rinsed with 70% ethanol and dried in a laminar flow hood. Filtration and preparation of aliquots were performed in a laminar flow hood. Of the nine aliquots, three aliquots were stored at each 40° C. and 60° C., two aliquots were stored at 25° C. and one aliquot was submitted for T0 testing. Samples were evaluated for pH, assay and related substances at T0 and, following 1 week, 2 weeks and 4 weeks of storage at 40° C. and 60° C. Samples stored at 25° C. served as controls to be analyzed if necessary.
This means that any increase in the pH of the formulation leads to an improvement in stability within the pH range in which an aqueous formulation is feasible.

pKa [1]: 5.6
theoretical free base solubility [1]: about 0.18 mg/mL
solution stability versus pH (in words) ([2]; assay and impurities data, pH 2 compared to pH 3-6): significantly less stable at pH 2
Impurities ([2]; target pH 2, 40° C. 2 wk): 1.48%
Impurities ([2]; target pH 2, 40° C. 4 wk): 2.49%
Impurities ([2]; target pH 2, 60° C. 1 wk): 3.83%
Impurities ([2]; target pH 2, 60° C. 2 wk): 9.89%
Impurities ([2]; target pH 2, 60° C. 4 wk): 14.34%
Impurities ([2]; target pH 3, 40° C. 2 wk): 0.19%
Impurities ([2]; target pH 3, 40° C. 4 wk): 0.41%
Impurities ([2]; target pH 3, 60° C. 1 wk): 0.71%
Impurities ([2]; target pH 3, 60° C. 4 wk): 2.19%
Impurities ([2]; target pH 4, 40° C. 2 wk): 0.17%
Impurities ([2]; target pH 4, 40° C. 4 wk): 0.22%
Impurities ([2]; target pH 4, 60° C. 2 wk): 0.52%
Impurities ([2]; target pH 4, 60° C. 4 wk): 1.02%
Impurities ([2]; target pH 5, 60° C. 2 wk): 0.62%
Impurities ([2]; target pH 5, 60° C. 4 wk): 1.10%
Impurities ([2]; target pH 6, 40° C. 2 wk): 0.25%
Impurities ([2]; target pH 6, 40° C. 4 wk): 0.28%
Impurities ([2]; target pH 6, 60° C. 4 wk): 1.65%
Assay ([3]; target pH 2.0, 60° C. 4 wk): 0.786
Impurities ([3]; target pH 2.7, 60° C. 4 wk): 3.9
pH ([3]; target pH 3.0, 60° C. 4 wk): 3.00
Assay ([3]; target pH 3.6, 60° C. 2 wk): 0.958
Compound: CCCNc1nc(NCCC)nc(N(C)OC)n1 [active agent, N-(4,6-Bis-n-propylamino-[1,3,5]triazin-2-yl)-O,N-dimethyl-hydroxylamine]
